US4783462A, “3(2H)pyridazinone, and anti-allergic agent containing it” (Nissan Chemical Industries Ltd., priority 1985, dated 1988)

Assays:
LTD4 [1] = experiment: LTD4 antagonism in isolated guinea-pig trachea with indomethacin, Test method (ii) (Table 4); format: cell-based; details: Cavia porcellus, 0.5 h, LTD4 2×10^-8 g/ml, test compound 10^-6 g/ml, 30 min prior, 5 μmol indomethacin
Protocol: (ii) LTD4 antagonism in guinea-pig trachea
Antagonism for LTD4 was determined in isolated guinea-pig trachea prepared as spiral strip. Tracheal preparations were suspended under 1 g tension in 10 ml organ baths containing 5 μmol of indomethacin and they were incuated for 1 hr prior to use. Contractile responses to LTD4 (2×10^-8 g/ml) were obtained after the maximal response to histamine (10^-4 M). Test compounds dissolved in 100% dimethyl sulfoxide were added to the organ baths (final concentration of 10^-6 g/ml) 30 min prior to LTD4 addition, and then contractile responses to LTD4 were compared with those of control which was obtained from a paired trachea in the absence of test compounds. LTD4 -induced contractions were expressed as a percentage of the maximal response to histamine. The antagonism was determined as follows:
(§1) Antagonism (%)=(1.0-% contraction in test/% contraction in […]

LTC4 = experiment: Antagonism in isolated guinea-pig trachea, Test method (i) (Table 3, given as LTC4 antagonism); format: cell-based; details: test compound 10^-5 g/ml, given as LTC4 antagonisms, 5 min; for inhibition at 10 µg/mL: Cavia porcellus
Protocol: (§2) (i) LTC4 and LTD4 antagonisms in guinea-pig trachea
(§3) Antagonisms for LTC4 and LTD4 were determined in isolated guinea-pig trachea prepared as spiral strip. Tracheal preparations were suspended under 1 g tension in 10 ml organ baths and they were incubated for 1 hr prior to use. Contractile responses to LTC4 (2×10^-8 g/ml) and LTD4 (2×10^-8 g/ml) were obtained after the maximal response to histamine (10^-4 M). Test compounds dissolved in 100% dimethyl sulfoxide were added to the organ baths (final concentration of 10^-5 g/ml or 10^-6 g/ml) 5 min prior to LTC4 and LTD4 addition, and then contractile responses to LTC4 and LTD4 were compared with those of control which was obtained from a paired trachea in the absence of test compounds. LTC4 - and LTD4 -induced contractions were expressed as a percentage of the maximal response to histamine. The antagonism was determined as follows:
as §1

ddY strain male mice = experiment: Acute toxicity test, Test method-(2), intraperitoneal; format: in vivo; details: 7 days
Protocol: The lethal ratio was determined in ddY strain male mice (4 weeks old) at 7 days after the intraperitoneal injection of test compounds.

[2] = system: anaphylactic bronchoconstriction in passively sensitized guinea-pig; experiment: Effect on anaphylactic bronchoconstriction in passively sensitized guinea-pig; format: in vivo; details: 2 mg/kg i.v.
Protocol: (iii) Effect on anaphylactic bronchoconstriction in passively sensitized guinea-pig
Male guinea-pigs (350-450 g) were passively sensitized with intravenous (i.v.) injection of 0.125 ml rabbit anti-EA (egg albumin) serum (Cappel Laboratories) 1 day preceding the experiment. […] Sensitized guinea-pigs were anaesthetized with intraperitoneal injection of urethane (1.5 g/kg). The right jugular vein was cannulated for the administration of the all agents and trachea was cannulated to record total pulmonary resistance. Guinea-pigs were artificially ventilated by a small animal respirator (Shinano, Model SN-480-7) set at a stroke volume of 5 ml and a rate of 50 breaths per min. […] The increase in air overflow volume was expressed as a percentage of the maximum bronchoconstriction obtained by clamping off the trachea. Following surgical preparation, the animals were pretreated with indomethacin (1.0 mg/kg, 10 min), pyrilamine (2 mg/kg, 6 min) and propranolol (0.1 mg/kg, 5 min) prior to the EA challenge (0.1 or 10 mg/kg). All test compounds, 2 mg/kg in 3% Tween 80 or 3% PEG-400, were administered 1 min before the EA challenge. Inhibition (%) of bronchoconstriction was determined as follows: Inhibition (%)=(1.0%-maximum bronchoconstriction in test/% maximum bronchoconstriction in control)×100. The maximum bronchoconstriction was obtained within 20 min after the EA challenge.
In the Table, the dose of EA was 10 mg/kg, and each compound was dissolved or suspended in 3% Tween 80.
The dose of EA was 0.1 mg/kg.

LTD4 [3] = experiment: LTD4 antagonism in isolated guinea-pig trachea, Test method (i) (Table 4, values with asterisk); format: cell-based; details: Cavia porcellus, 5 min, test compound 10^-6 g/ml, 5 min prior
Protocol: as §2, §3, §1

[4] = Table 5-(2), EA 0.1 mg/kg, Tween 80
[5] = Table 5-(2), EA 0.1 mg/kg, PEG-400
[6] = Table 5-(1), EA 10 mg/kg, 3% Tween 80

## CCCc1cc(C(=O)O)ccc1OCCCNc1cnn(C(C)C)c(=O)c1Cl [Compound No. 41, 4-chloro-5-[3-(2-n-propyl-4-carboxyphenoxy)propylamino]-2-i-propyl-3(2H)pyridazinone]
LTD4 [1]
  inhibition at 1 µg/mL: 82%
LTC4
  Antagonism (%): 100%
ddY strain male mice; 200 mg/kg intraperitoneal
  Lethal ratio (Death number/Experimental number): 0/2
[2]; [4]
  Inhibition (%): 31%

## CCCc1cc(C(N)=O)ccc1OCCCNc1cnn(C(C)C)c(=O)c1Cl [Compound No. 42, 4-Chloro-5-[3-(2-n-propyl-4-carbamoylphenoxy)propylamino]-2-i-propyl-3(2H)pyridazinone]
LTD4 [1]
  inhibition at 1 µg/mL: 76%
LTC4
  inhibition at 10 µg/mL: 95%
ddY strain male mice; 200 mg/kg intraperitoneal
  Lethal ratio (Death number/Experimental number): 0/2
ddY strain male mice; 400 mg/kg intraperitoneal
  Lethal ratio (Death number/Experimental number): 0/1
[2]; [5]
  Inhibition (%): 31%

## CCCc1cc(C(=O)OC)ccc1OCCCNc1cnn(C(C)C)c(=O)c1Cl [Compound No. 44, 4-choloro-5-[3-(2-n-propyl-4-methoxycarbonylphenoxy)propylamino]-2-i-propyl-3(2H)pyridazinone]
LTD4 [1]
  inhibition at 1 µg/mL: 63%
LTC4
  inhibition at 10 µg/mL: 90%
ddY strain male mice; 200 mg/kg intraperitoneal
  Lethal ratio (Death number/Experimental number): 0/1
ddY strain male mice; 400 mg/kg intraperitoneal
  Lethal ratio (Death number/Experimental number): 0/1

## CCCc1cc(C(=O)OCC)ccc1OCCCNc1cnn(C(C)C)c(=O)c1Cl [Compound No. 64, 4-chloro-5-[3-(2-n-propyl-4-ethoxycarbonylphenoxy)propylamino]-2-i-propyl-3(2H)pyridazinone]
LTC4
  inhibition at 10 µg/mL: 87%
[2]; [4]
  Inhibition (%): 56%

## CCCc1cc(C(=O)O)ccc1OCCCNc1cnn(C(C)C)c(=O)c1Cl [Compound No. 67]
LTC4
  inhibition at 10 µg/mL: 99%
[2]; [4]
  Inhibition (%): 62%

## CCc1cc(C#N)ccc1OCCCNc1cnn(C(C)C)c(=O)c1Cl [Compound No. 98]
LTD4 [1]
  inhibition at 1 µg/mL: 80%
LTC4
  inhibition at 10 µg/mL: 89%

## CCCCc1cc(C(=O)O)ccc1OCCCNc1cnn(C(C)C)c(=O)c1Cl [Compound No. 112, 4-chloro-5-[3-(2-n-butyl-4-carboxyphenoxy)propylamino]-2-i-propyl-3(2H) pyridazinone]
LTC4
  inhibition at 10 µg/mL: 100%
LTD4 [3]
  inhibition at 1 µg/mL: 62%

## CCCCc1cc(C(N)=O)ccc1OCCCNc1cnn(C(C)C)c(=O)c1Cl [Compound No. 114, 4-Chloro-5-[3-(2-n-butyl-4-carbamoylphenoxy)propylamino]-2-i-propyl-3-(2H)pyridazinone]
LTC4
  inhibition at 10 µg/mL: 89%
LTD4 [3]
  inhibition at 1 µg/mL: 66%

## CCCCc1cc(C(=O)O)ccc1OCCCNc1cnn(C(C)C)c(=O)c1Br [Compound No. 127]
LTD4 [3]
  inhibition at 1 µg/mL: 91%

## CCCc1cc(C(=O)OC)ccc1OCC(=O)CNc1cnn(C(C)C)c(=O)c1Cl [Compound No. 161, 4-Chloro-5-[3-(2-n-propyl-4-methoxycarbonylphenoxy)-2-oxopropylamino]-2-i-propyl-3(2H)pyridazinone]
LTC4
  inhibition at 10 µg/mL: 71%
[2]; [4]
  Inhibition (%): 20%

## COc1cccc(OCCCOc2cnn(C(C)(C)C)c(=O)c2Cl)c1 [compound 27]
LTC4
  inhibition at 10 µg/mL: 65%
ddY strain male mice; 100 mg/kg intraperitoneal
  Lethal ratio (Death number/Experimental number): 0/2
ddY strain male mice; 200 mg/kg intraperitoneal
  Lethal ratio (Death number/Experimental number): 0/2
[2]; [6]
  Inhibition (%): 23%

## CCn1ncc(OCCCOc2cccc(OC)c2)c(Cl)c1=O [compound 28]
LTC4
  inhibition at 10 µg/mL: 61%
ddY strain male mice; 200 mg/kg intraperitoneal
  Lethal ratio (Death number/Experimental number): 0/2
ddY strain male mice; 400 mg/kg intraperitoneal
  Lethal ratio (Death number/Experimental number): 0/1
[2]; [6]
  Inhibition (%): 17%

## CCCc1cc(C(=O)OC)ccc1OCCCNc1cnn(C)c(=O)c1Cl [compound 43]
LTC4
  inhibition at 10 µg/mL: 63%
[2]; [6]
  Inhibition (%): 24%

## CCCc1cc(C#N)ccc1OCCCNc1cnn(CC)c(=O)c1Cl [compound 47]
LTC4
  inhibition at 10 µg/mL: 99%
ddY strain male mice; 200 mg/kg intraperitoneal
  Lethal ratio (Death number/Experimental number): 0/2
ddY strain male mice; 400 mg/kg intraperitoneal
  Lethal ratio (Death number/Experimental number): 0/2
[2]; [6]
  Inhibition (%): 28%

## CCOc1ccccc1OCCCNc1cnn(CC)c(=O)c1Cl [compound 51]
LTC4
  inhibition at 10 µg/mL: 82%
[2]; [6]
  Inhibition (%): 15%

## COc1ccc(CCNc2cnn(C(C)C)c(=O)c2Cl)cc1 [compound 55]
LTC4
  inhibition at 10 µg/mL: 72%
[2]; [6]
  Inhibition (%): 26%

## CCCc1cc(C#N)ccc1OCCCNc1cnn(C(C)C)c(=O)c1Cl [compound 60]
LTC4
  inhibition at 10 µg/mL: 98%
[2]; [6]
  Inhibition (%): 15%

## CCCc1cc(C#N)ccc1OCCCOc1cnn(CC)c(=O)c1Cl [compound 65]
LTC4
  inhibition at 10 µg/mL: 98%
[2]; [4]
  Inhibition (%): 27%

## CCOc1ccccc1OCCCNc1cnn(C(C)C)c(=O)c1Cl [compound 71]
LTC4
  inhibition at 10 µg/mL: 88%
[2]; [4]
  Inhibition (%): 26%

## CCCc1cc(C(=O)O)ccc1OCCCN(C)c1cnn(C(C)C)c(=O)c1Cl [compound 74]
LTC4
  inhibition at 10 µg/mL: 73%
[2]; [4]
  Inhibition (%): 50%

## CCCc1cc(C(=O)OC)ccc1OCCCOc1cnn(C(C)C)c(=O)c1Cl [compound 85]
LTC4
  inhibition at 10 µg/mL: 78%
[2]; [4]
  Inhibition (%): 23%

## CCc1cc(C(N)=O)ccc1OCCCNc1cnn(C(C)C)c(=O)c1Cl [compound 102]
LTC4
  inhibition at 10 µg/mL: 93%
[2]; [5]
  Inhibition (%): 73%

## CCn1ncc(NCCCOc2ccc(C(=O)OC)cc2C(C)C)c(Cl)c1=O [compound 103]
LTC4
  inhibition at 10 µg/mL: 93%
[2]; [5]
  Inhibition (%): 69%

## CCCc1cc(OC)ccc1OCCCNc1cnn(C(C)C)c(=O)c1Cl [compound 105]
LTD4 [1]
  inhibition at 1 µg/mL: 52%
LTC4
  inhibition at 10 µg/mL: 89%

## CCCc1cc(O)ccc1OCCCNc1cnn(C(C)C)c(=O)c1Cl [compound 109]
LTD4 [1]
  inhibition at 1 µg/mL: 69%
LTC4
  inhibition at 10 µg/mL: 99%

## CCCCc1cc(C(=O)OC)ccc1OCCCNc1cnn(CC)c(=O)c1Cl [compound 111]
LTD4 [1]
  inhibition at 1 µg/mL: 79%
LTC4
  inhibition at 10 µg/mL: 87%

## CCCCc1cc(C(=O)O)ccc1OCCCNc1cnn(CC)c(=O)c1Cl [compound 113]
LTD4 [1]
  inhibition at 1 µg/mL: 54%
LTC4
  inhibition at 10 µg/mL: 100%

## CCCCc1cc(C(N)=O)ccc1OCCCNc1cnn(CC)c(=O)c1Cl [compound 115]
LTD4 [1]
  inhibition at 1 µg/mL: 61%
LTC4
  inhibition at 10 µg/mL: 94%

## CCCc1cc(C#N)ccc1OCCCNc1cnn(C(C)C)c(=O)c1Br [compound 120]
LTD4 [3]
  inhibition at 1 µg/mL: 82%

## CCCc1cc(C(N)=O)ccc1OCCCNc1cnn(CC)c(=O)c1Br [compound 121]
LTD4 [3]
  inhibition at 1 µg/mL: 43%

## C=CCc1cc(C#N)ccc1OCCCNc1cnn(C(C)C)c(=O)c1Br [compound 123]
LTD4 [3]
  inhibition at 1 µg/mL: 65%

## CCCc1cc(C#N)ccc1OCCCNc1cnn(C(C)(C)C)c(=O)c1CCC [compound 128]
LTD4 [3]
  inhibition at 1 µg/mL: 17%

## CCCc1cc(C(=O)OC)ccc1OCCCNc1cn[nH]c(=O)c1CCC [compound 131]
LTD4 [3]
  inhibition at 1 µg/mL: 33%

## CCCc1cc(C(=O)O)ccc1OCCCNc1cn[nH]c(=O)c1CCC [compound 132]
LTD4 [3]
  inhibition at 1 µg/mL: 26%

## CCCc1cc(C(=O)OC)ccc1OCCCNc1cnn(CC)c(=O)c1CCC [compound 133]
LTD4 [3]
  inhibition at 1 µg/mL: 27%

## CCCc1cc(C(=O)OC)ccc1OCC(CNc1cnn(C(C)C)c(=O)c1Cl)OC (centres unmarked) [compound 162]
LTC4
  inhibition at 10 µg/mL: 81%
[2]; [4]
  Inhibition (%): 49%

## CCCc1cc(C(=O)O)ccc1OCC(CNc1cnn(C(C)C)c(=O)c1Cl)OC (centres unmarked) [compound 163]
LTC4
  inhibition at 10 µg/mL: 74%
[2]; [4]
  Inhibition (%): 32%

## CCCc1cc(C(=O)OC)ccc1OCC(CN(C)c1cnn(C(C)C)c(=O)c1Cl)OC (centres unmarked) [compound 164]
LTC4
  inhibition at 10 µg/mL: 71%
[2]; [4]
  Inhibition (%): 40%

## CCCCCc1cc(C(=O)O)ccc1OCCCNc1cnn(CC)c(=O)c1Br [compound 205]
LTD4 [1]
  inhibition at 1 µg/mL: 96%

## CCC(C)c1cc(C(=O)O)ccc1OCCCNc1cnn(CC)c(=O)c1Br (centres unmarked) [compound 218]
LTD4 [1]
  inhibition at 1 µg/mL: 84%
